Assay results taken from patent publication US10336762B2 (priority 2017, dated 2019).
pEC50, pIC50: −log10 of the molar value. Where two headings read alike, the source gives them in different places.

Assays:
[1] = biological target: IRAK4 enzyme (Homo sapiens (Human), UniProt Q9NWZ3); assay: biochemical; format: biochemical; conditions: IRAK4 enzyme, 500 μM ATP
[2] = test system: TNFα; assay: cells; format: cell-based, human; conditions: Homo sapiens, Monocyte, LPS-stimulated human monocytes, read-out: EC50 TNF

IRAK4 enzyme, sequence (Q9NWZ3 whole entry): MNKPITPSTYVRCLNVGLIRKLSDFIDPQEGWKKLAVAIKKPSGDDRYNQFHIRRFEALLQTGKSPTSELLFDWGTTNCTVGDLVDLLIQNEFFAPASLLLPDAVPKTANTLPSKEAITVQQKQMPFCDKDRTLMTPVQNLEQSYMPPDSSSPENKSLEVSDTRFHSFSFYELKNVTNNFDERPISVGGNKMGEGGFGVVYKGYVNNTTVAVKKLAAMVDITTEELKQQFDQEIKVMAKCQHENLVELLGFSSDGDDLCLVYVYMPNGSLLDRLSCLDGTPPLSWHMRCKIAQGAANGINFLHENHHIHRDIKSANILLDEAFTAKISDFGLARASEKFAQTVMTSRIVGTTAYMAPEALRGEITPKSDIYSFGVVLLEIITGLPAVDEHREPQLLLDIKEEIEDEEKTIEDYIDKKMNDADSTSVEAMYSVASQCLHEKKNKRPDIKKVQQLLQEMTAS

Row | SMILES | pIC50 ([1]; TR-FRET (HTRF)) | pEC50 ([2]; TNFα content) | pIC50 ([1]; TR-FRET) | pEC50 ([2]; TNFα by TR-FRET)
1 | C=CC(=O)NC12CCC(Nc3cc(-c4ccc5cc(C#N)cnn45)ncc3C(=O)NC[C@@H](F)C(C)(C)O)(CC1)CC2 [Example 424, (R)-4-((4-acrylamidobicyclo[2.2.2]octan-1-yl)amino)-6-(3-cyanopyrrolo[1,2-b]pyridazin-7-yl)-N-(2-fluoro-3-hydroxy-3-methyl-butyl)nicotinamide] | 9.00 | 7.74 | – | –
2 | CNC(=O)OC12CCC(Nc3cc(-c4ccc5cc(C#N)cnn45)ncc3C(=O)NC[C@@H](F)C(C)(C)O)(CC1)CC2 [Example 412, (R)-4-((2-(3-cyanopyrrolo[1,2-b]pyridazin-7-yl)-5-((2-fluoro-3-hydroxy-3-methylbutyl)carbamoyl)pyridin-4-yl)amino)bicyclo[2.2.2]octan-1-yl methylcarbamate] | 9.00 | 7.36 | – | –
3 | CC(C)(O)[C@H](F)CNC(=O)c1cnc(-c2ccc3cc(C#N)cnn23)cc1Nc1cnn(C2CNC2)c1 [Example 232, (R)-4-((1-(azetidin-3-yl)-1H-pyrazol-4-yl)amino)-6-(3-cyanopyrrolo[1,2-b]pyridazin-7-yl)-N-(2-fluoro-3-hydroxy-3-methylbutyl)nicotinamide] | – | 6.37 | 9.00 | –
4 | CC(C)(O)[C@H](F)CNC(=O)c1cnc(-c2ccc3cc(C#N)cnn23)cc1Nc1ccc2c(c1)NC(=O)C2 [Example 573, (R)-6-(3-cyanopyrrolo[1,2-b]pyridazin-7-yl)-N-(2-fluoro-3-hydroxy-3-methyl-butyl)-4-((2-oxoindolin-6-yl)amino)nicotinamide] | > 9.00 | 7.62 | – | –
5 | N#Cc1cnn2c(-c3cc(NC45CCC(O)(CC4)CC5)c(C(=O)NCC(=O)N4CCCCC4)cn3)ccc2c1 [Example 792, 6-(3-cyanopyrrolo[1,2-b]pyridazin-7-yl)-4-((4-hydroxybicyclo[2.2.2]octan-1-yl)amino)-N-(2-oxo-2-(piperidin-1-yl)ethyl)nicotinamide] | 8.70 | 7.07 | – | –
6 | CN(C)C(=O)C(F)(F)CNC(=O)c1cnc(-c2ccc3cc(C(N)=O)cnn23)cc1NC12CCC(O)(CC1)CC2 [Example 962, 7-(5-((3-(dimethylamino)-2,2-difluoro-3-oxopropyl)carbamoyl)-4-((4-hydroxybicyclo[2.2.2]octan-1-yl)amino)pyridin-2-yl)pyrrolo[1,2-b]pyridazine-3-carboxamide] | – | – | 6.19 | < 5.00
7 | CC(C)(O)[C@H](F)CNC(=O)c1cnc(-c2ccc3cc(C#N)cnn23)cc1Nc1ccc2nncn2c1 [Example 973, (R)-4-([1,2,4]triazolo[4,3-a]pyridin-6-ylamino)-6-(3-cyanopyrrolo[1,2-b]pyridazin-7-yl)-N-(2-fluoro-3-hydroxy-3-methylbutyl)nicotinamide] | – | – | 8.70 | 5.72
8 | COC(=O)NC[C@H]1C[C@H](Nc2cc(-c3ccc4cc(C#N)cnn34)ncc2C(=O)NCC(=O)C(C)(C)O)C1 [Example 815, methyl (((1r,3r)-3-((2-(3-cyanopyrrolo[1,2-b]pyridazin-7-yl)-5-((3-hydroxy-3-methyl-2-oxobutyl)carbamoyl)pyridin-4-yl)amino)cyclo-butyl)methyl)carbamate] | – | – | > 9.00 | 7.82
9 | CN(C)c1ccc(Nc2cc(-c3ccc4cc(C#N)cnn34)ncc2C(=O)NC[C@@H](F)C(C)(C)O)cn1 [Example 679, (R)-6-(3-cyanopyrrolo[1,2-b]pyridazin-7-yl)-4-((6-(dimethylamino)pyridin-3-yl)amino)-N-(2-fluoro-3-hydroxy-3-methylbutyl)nicotinamide] | > 9.00 | 7.77 | – | –
10 | CC(C)(O)[C@H](F)CNC(=O)c1cnc(-c2ccc3cc(C#N)cnn23)cc1Nc1ccc(C#N)cn1 [Example 413, (R)-4-((5-cyanopyridin-2-yl)amino)-6-(3-cyano-pyrrolo[1,2-b]pyridazin-7-yl)-N-(2-fluoro-3-hydroxy-3-methylbutyl) nicotinamide] | > 9.00 | 7.01 | – | –
11 | CC(C)Nc1cc(-c2ccc3cc(C#N)cnn23)ncc1C(=O)NCC(F)(F)CNC(=O)OC(C)(C)C [Example 554, tert-butyl (3-(6-(3-cyano-pyrrolo[1,2-b]pyridazin-7-yl)-4-(isopropylamino)nicotinamido)-2,2-difluoropropyl)carbamate] | 7.46 | 6.36 | – | –
12 | COC(=O)NCCCC(C)(C)Nc1cc(-c2ccc3cc(C#N)cnn23)ncc1C(=O)NC[C@@H](F)C(C)(C)O [Example 720, (R)-methyl (4-((2-(3-cyano-pyrrolo[1,2-b]pyridazin-7-yl)-5-((2-fluoro-3-hydroxy-3-methylbutyl)carbamoyl)pyridin-4-yl)amino)-4-methylpentyl)carbamate] | 8.70 | 6.61 | – | –
13 | CC(C)(O)[C@H](F)CNC(=O)c1cnc(-c2ccc3cc(C#N)cnn23)cc1NC1CCCCC1 [Example 64, (R)-6-(3-cyanopyrrolo[1,2-b]pyridazin-7-yl)-4-(cyclohexylamino)-N-(2-fluoro-3-hydroxy-3-methylbutyl) nicotinamide] | – | 7.15 | > 9.00 | –
14 | CC(C)(O)[C@H](F)CNC(=O)c1cnc(-c2ccc3cc(C#N)cnn23)cc1-n1cc(-c2ccc(N)cn2)cn1 [Example 939, (R)-4-(4-(5-aminopyridin-2-yl)-1H-pyrazol-1-yl)-6-(3-cyanopyrrolo[1,2-b]pyridazin-7-yl)-N-(2-fluoro-3-hydroxy-3-methyl-butyl)nicotinamide] | – | – | 6.19 | < 5.00
15 | CC(C)(O)[C@H](F)CNC(=O)c1cnc(-c2ccc3cc(C#N)cnn23)cc1NC12CCC(CC1)CC2 [Example 421, (R)-4-(bicyclo[2.2.2]octan-1-ylamino)-6-(3-cyano-pyrrolo[1,2-b]pyridazin-7-yl)-N-(2-fluoro-3-hydroxy-3-methylbutyl)nicotinamide] | 8.70 | 7.62 | – | –
16 | CN(C(=O)CNC(=O)c1cnc(-c2ccc3cc(C#N)cnn23)cc1NC12CCC(O)(CC1)CC2)C(C)(C)C [Example 814, N-(2-(tert-butyl(methyl)amino)-2-oxoethyl)-6-(3-cyanopyrrolo[1,2-b]pyridazin-7-yl)-4-((4-hydroxybicyclo[2.2.2]octan-1-yl)amino) nicotinamide] | – | – | > 9.00 | 7.40
17 | CC(C)(O)[C@H](F)CNC(=O)c1cnc(-c2ccc3cc(C#N)cnn23)cc1NCc1c[nH]cn1 [Example 105, (R)-4-(((1H-imidazol-4-yl)methyl)amino)-6-(3-cyanopyrrolo[1,2-b]pyridazin-7-yl)-N-(2-fluoro-3-hydroxy-3-methylbutyl)nicotinamide] | – | 5.50 | 8.05 | –
18 | CC(C)(O)[C@H](F)CNC(=O)c1cnc(-c2ccc3cc(C#N)cnn23)cc1N[C@H]1C[C@H](Cn2ccccc2=O)C1 [Example 729, 6-(3-cyanopyrrolo[1,2-b]pyridazin-7-yl)-N-((R)-2-fluoro-3-hydroxy-3-methylbutyl)-4-(((1r,3R)-3-((2-oxopyridin-1(2H)-yl)methyl)cyclobutyl)amino)nicotinamide] | 9.00 | 7.24 | – | –
19 | C[C@H](NC(=O)c1cnc(-c2ccc3cc(C#N)cnn23)cc1NC12CCC(O)(CC1)CC2)C(=O)N1CCOCC1 [Example 943, (S)-6-(3-cyano-pyrrolo[1,2-b]pyridazin-7-yl)-4-((4-hydroxy-bicyclo[2.2.2]octan-1-yl)amino)-N-(1-morpholino-1-oxopropan-2-yl) nicotinamide] | – | – | 7.46 | 6.08
20 | CC(C)(O)[C@H](F)CNC(=O)c1cnc(-c2ccc3cc(C#N)cnn23)cc1N[C@H]1CC[C@H](c2nnco2)CC1 [Example 637, 4-(((1r,4R)-4-(1,3,4-oxadiazol-2-yl)cyclohexyl)amino)-6-(3-cyano-pyrrolo[1,2-b]pyridazin-7-yl)-N-((R)-2-fluoro-3-hydroxy-3-methylbutyl) nicotinamide] | > 9.00 | 7.68 | – | –
21 | N#Cc1cnn2c(-c3cc(Nc4cnc5c(c4)OCCO5)c(C(=O)N[C@H]4CC[C@H](NC(=O)C5CC5)CC4)cn3)ccc2c1 [Example 858, 6-(3-cyanopyrrolo[1,2-b]pyridazin-7-yl)-N-((1r,4r)-4-(cyclopropanecarboxamido)cyclohexyl)-4-((2,3-dihydro-[1,4]dioxino[2,3-b]pyridin-7-yl)amino)nicotinamide] | – | – | > 9.00 | 7.70
22 | CC(=O)NCc1ccc(Nc2cc(-c3ccc4cc(C#N)cnn34)ncc2C(=O)NC[C@@H](F)C(C)(C)O)cc1 [Example 241, (R)-4-((4-(acetamidomethyl)phenyl)amino)-6-(3-cyanopyrrolo[1,2-b]pyridazin-7-yl)-N-(2-fluoro-3-hydroxy-3-methylbutyl)nicotinamide] | – | 7.80 | > 9.00 | –
23 | CC(C)(O)[C@H](F)CNC(=O)c1cnc(-c2ccc3cc(C#N)cnn23)cc1N[C@H]1CC[C@H](NC(=O)C(F)(F)F)CC1 [Example 313, 6-(3-cyanopyrrolo[1,2-b]pyridazin-7-yl)-N-((R)-2-fluoro-3-hydroxy-3-methylbutyl)-4-(((1r,4R)-4-(2,2,2-trifluoroacetamido)cyclohexyl)amino) nicotinamide] | – | 7.43 | 9.00 | –
24 | CC(C)(O)[C@H](F)CNC(=O)c1cnc(-c2ccc3cc(C#N)cnn23)cc1Nc1cnn([C@H]2CNC[C@H]2F)c1 [Example 914, 6-(3-cyanopyrrolo[1,2-b]pyridazin-7-yl)-N-((R)-2-fluoro-3-hydroxy-3-methylbutyl)-4-((1-((3S,4R)-4-fluoropyrrolidin-3-yl)-1H-pyrazol-4-yl)amino)nicotinamide] | – | – | > 9.00 | 7.89
25 | CC(C)(O)[C@H](F)CNC(=O)c1cnc(-c2ccc3cc(C#N)cnn23)cc1NC1CC(Cc2cnco2)C1 (stereo partly drawn) [Example 636, (R)-6-(3-cyanopyrrolo[1,2-b]pyridazin-7-yl)-N-(2-fluoro-3-hydroxy-3-methylbutyl)-4-((3-(oxazol-5-ylmethyl)cyclobutyl)amino)nicotinamide] | > 9.00 | 7.48 | – | –
